Laboratory results as given in patent US20260115185A1, “QUINOLINE DERIVATIVES WHICH ACT AS KAPPA-OPIOID RECEPTOR ANTAGONISTS” (The Scripps Research Institute, priority 2023, published 2026).

What was measured:
[1] = target: T1, mu opioid receptor (MOR) (Homo sapiens, UniProt P35372); assay: OPRMu1 Discover X β-arrestin Assay, antagonist mode (U2OS cells, DAMGO EC80 challenge); type: cell-based
T1 construct: host or cells: U2OS (Discover X OPRMu1-U2OS, PathHunter)
Outline: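 PathHunter U2OS cells with β-gal fragment-complementation readout for β-arrestin recruitment to OPRMu1. Cells were preincubated with compound (10-point, 1:3 series from nominal 10 micromolar) for 30 min at 37 °C, then challenged with 303 nM DAMGO (EC80) for 3 h. Luminescence gave percent inhibition.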

[2] = target: T2, kappa opioid receptor (KOR) (Homo sapiens, UniProt P41145); assay: OPRKappa 1 Tango B-Arrestin Assay, antagonist mode (Tango OPRK1-bla U2OS cells, U50488 EC80 challenge); type: cell-based; conditions: for Selectivity (MOR/KOR): Kappa selectivity, MOR IC50 / KOR IC50; for IC50: antagonist mode, Tango OPRK1-bla U2OS cells, 6 nM U50488 challenge
T2 construct: host or cells: U2OS (Tango OPRK1-bla U2OS)
T2 sequence (P41145 whole entry): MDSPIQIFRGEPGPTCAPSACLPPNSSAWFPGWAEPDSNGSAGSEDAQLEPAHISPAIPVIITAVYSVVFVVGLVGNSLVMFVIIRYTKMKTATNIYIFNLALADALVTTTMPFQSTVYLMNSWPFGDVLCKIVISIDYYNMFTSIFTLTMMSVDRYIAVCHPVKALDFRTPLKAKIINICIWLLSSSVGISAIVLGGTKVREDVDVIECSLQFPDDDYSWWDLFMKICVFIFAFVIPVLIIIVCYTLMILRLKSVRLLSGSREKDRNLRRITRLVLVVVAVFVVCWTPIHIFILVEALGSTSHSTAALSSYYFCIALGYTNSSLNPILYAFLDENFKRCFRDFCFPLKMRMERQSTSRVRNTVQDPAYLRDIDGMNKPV
Outline: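 Tango OPRK1-bla U2OS cells, β-arrestin recruitment read as β-lactamase FRET (CCF4-AM, 460/590 nm emission). Compounds, 10-point 1:3 series from nominal 10 µM in quadruplicate, preincubated 30 min at 37 °C, then challenged with U50488 at 6 nM final (EC80) for 4 h; percent inhibition from median ratio.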

T1 sequence (P35372 whole entry): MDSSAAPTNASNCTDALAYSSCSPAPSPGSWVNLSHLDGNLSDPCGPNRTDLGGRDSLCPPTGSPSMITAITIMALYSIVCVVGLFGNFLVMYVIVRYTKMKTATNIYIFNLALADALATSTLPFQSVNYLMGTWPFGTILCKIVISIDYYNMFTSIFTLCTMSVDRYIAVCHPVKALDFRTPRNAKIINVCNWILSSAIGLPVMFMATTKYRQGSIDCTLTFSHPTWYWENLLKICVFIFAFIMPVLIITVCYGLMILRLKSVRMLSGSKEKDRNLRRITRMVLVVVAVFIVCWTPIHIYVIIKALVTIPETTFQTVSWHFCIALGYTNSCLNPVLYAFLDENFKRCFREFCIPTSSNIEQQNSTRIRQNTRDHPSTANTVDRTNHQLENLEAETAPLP

| IC50 [1] | IC50 [2] | Compound | Selectivity (MOR/KOR) [2] |
| --- | --- | --- | --- |
| > 1000 nM | 1 to 10 nM | CCc1cc(F)c2nc(N3CCN(C(=O)[C@@H](C)N(CC)CC)C[C@H]3C)c(-c3cc(C)no3)c(C)c2c1 [Compound 180] | +++ (between 100- to 1000-fold selective) |
| > 1000 nM | 10 to 100 nM | CCc1cc(F)c2nc(N3CC[C@H]4[C@H](CCN4C[C@@H]4CCOC4)C3)c(-c3ccn(C)n3)c(C)c2c1 (stereo in doubt) [Compound 129] | ++ (between 10- and 100-fold selectivity) |
| > 1000 nM | 1 to 10 nM | CCc1cc(F)c2nc(N3CC[C@H]4[C@H](CCN4[C@@H]4CCOC4)C3)c(-c3ccn(C)n3)c(C)c2c1 [Compound 125] | ++++ (more than 1000-fold selectivity over MOR) |
| 100 to 1000 nM | < 1 nM | CCc1cc(F)c2nc(N3CC[C@@H](N[C@@H]4CCCOC4)C[C@H]3C)c(-c3cc(C)no3)c(C)c2c1 [Compound 144] | +++ (between 100- to 1000-fold selective) |
| 10 to 100 nM | 1 to 10 nM | CCc1cc(-c2ccnn2C)c2nc(N3CC[C@@H](NC4CCOCC4)[C@@H](F)C3)c(-c3ccn(C)n3)c(C)c2c1 [Compound 15, (3S,4R)-1-(6-ethyl-4-methyl-3-(1-methyl-1H-pyrazol-3-yl)-8-(1-methyl-1H-pyrazol-5-yl)quinolin-2-yl)-3-fluoro-N-(tetrahydro-2H-pyran-4-yl)piperidin-4-amine] | ++ (between 10- and 100-fold selectivity) |
| > 1000 nM | 1 to 10 nM | CCc1cc(F)c2nc(N3CCN(C(=O)CN4CC[C@@H](O)C4)C[C@H]3C)c(-c3nc(C)no3)c(C)c2c1 [Compound 145] | ++++ (more than 1000-fold selectivity over MOR) |
| 100 to 1000 nM | 1 to 10 nM | CCc1cc(-c2ccnn2C)c2nc(N3CCC(N[C@@H]4CCOC[C@H]4F)CC3)c(-c3ccn(C)n3)c(C)c2c1 [Compound 22, 1-(6-ethyl-4-methyl-3-(1-methyl-1H-pyrazol-3-yl)-8-(1-methyl-1H-pyrazol-5-yl)quinolin-2-yl)-N-((3S,4R)-3-fluorotetrahydro-2H-pyran-4-yl)piperidin-4-amine] | ++ (between 10- and 100-fold selectivity) |
| > 1000 nM | 1 to 10 nM | CCc1cc(F)c2nc(N3CCN(C(=O)[C@H]4CC(F)(F)CCN4)C[C@H]3C)c(-c3nc(C)no3)c(C)c2c1 [Compound 200] | +++ (between 100- to 1000-fold selective) |
| > 1000 nM | ≥ 100 nM | Cc1noc(-c2c(N3CCN(CC4CCOCC4)C[C@H]3C)nc3c(F)cc(Cl)cc3c2C)n1 [Compound 50, (R)-5-(6-chloro-8-fluoro-4-methyl-2-(2-methyl-4-((tetrahydro-2H-pyran-4-yl)methyl)piperazin-1-yl)quinolin-3-yl)-3-methyl-1,2,4-oxadiazole] | ++ (between 10- and 100-fold selectivity) |
| 100 to 1000 nM | 1 to 10 nM | CCc1cc(-c2ccnn2C)c2nc(N3CCN(CC4CCOCC4)C[C@H]3C)c(-c3ccn(C)n3)c(C)c2c1 [Compound 62] | +++ (between 100- to 1000-fold selective) |
| > 1000 nM | 1 to 10 nM | CCc1cc(F)c2nc(N3CCN(C(=O)[C@H](C)N4CC[C@@H](F)C4)C[C@H]3C)c(-c3nc(C)no3)c(C)c2c1 (stereo in doubt) [Compound 151] | +++ (between 100- to 1000-fold selective) |
| 10 to 100 nM | < 1 nM | CCc1cc(-c2ccnn2C)c2nc(N3CCC(NCC4(F)CCC4)CC3)c(-c3ccn(C)n3)c(C)c2c1 [Compound 90] | +++ (between 100- to 1000-fold selective) |
| > 1000 nM | < 1 nM | CCc1cc(-c2ccn(C)n2)c2nc(N3CCC(N[C@@H]4CCOC4)CC3)c(-c3ccn(C)n3)c(C)c2c1 [Compound 100] | ++++ (more than 1000-fold selectivity over MOR) |
| > 1000 nM | 1 to 10 nM | CCc1cc(F)c2nc(N3CC[C@H](N[C@@H]4CCOC4)[C@@H](F)C3)c(-c3ccn(C)n3)c(C)c2c1 [Compound 195, (3S,4S)-1-(6-ethyl-8-fluoro-4-methyl-3-(1-methyl-1H-pyrazol-3-yl)quinolin-2-yl)-3-fluoro-N—((R)-tetrahydrofuran-3-yl)piperidin-4-amine] | ++++ (more than 1000-fold selectivity over MOR) |
| > 1000 nM | 1 to 10 nM | CCc1cc(F)c2nc(N3CC[C@@H](N[C@@H]4CCOC4)[C@H](F)C3)c(-c3ccn(C)n3)c(C)c2c1 [Compound 196, (3R,4R)-1-(6-ethyl-8-fluoro-4-methyl-3-(1-methyl-1H-pyrazol-3-yl)quinolin-2-yl)-3-fluoro-N—((R)-tetrahydrofuran-3-yl)piperidin-4-amine] | +++ (between 100- to 1000-fold selective) |
| > 1000 nM | 1 to 10 nM | CCc1cc(-c2ccnn2C)c2nc(N3CC[C@H](NC4CCOCC4)[C@H](F)C3)c(-c3ccn(C)n3)c(C)c2c1 [Compound 1, (3R,4S)-1-(6-ethyl-4-methyl-3-(1-methyl-1H-pyrazol-3-yl)-8-(1-methyl-1H-pyrazol-5-yl)quinolin-2-yl)-3-fluoro-N-(tetrahydro-2H-pyran-4-yl)piperidin-4-amine] | +++ (between 100- to 1000-fold selective) |
| > 1000 nM | 1 to 10 nM | CCc1cc(F)c2nc(N3CCN(C(=O)CN(CC)CC)C[C@H]3C)c(-c3cc(C)no3)c(C)c2c1 [Compound 166] | +++ (between 100- to 1000-fold selective) |
| > 1000 nM | 10 to 100 nM | CCc1cc(F)c2nc(N3CCN(C(=O)[C@@H]4CCCN4C)C[C@H]3C)c(-c3nc(C)no3)c(C)c2c1 [Compound 46] | +++ (between 100- to 1000-fold selective) |
| > 1000 nM | 10 to 100 nM | CCc1cc(F)c2nc(N3CC[C@@H]4[C@@H](CCN4[C@@H]4CCCOC4)C3)c(-c3ccn(C)n3)c(C)c2c1 [Compound 124] | +++ (between 100- to 1000-fold selective) |
| > 1000 nM | 10 to 100 nM | CCc1cc(F)c2nc(N3CC[C@@H]4[C@@H](CCN4C[C@@H]4CCCOC4)C3)c(-c3ccn(C)n3)c(C)c2c1 [Compound 133] | +++ (between 100- to 1000-fold selective) |
| 100 to 1000 nM | 10 to 100 nM | CCc1cc(F)c2nc(N3CCC(N[C@@H]4CCOC[C@H]4F)CC3)c(-c3cc(C)n(C)n3)c(C)c2c1 [Compound 4, 1-(3-(1,5-dimethyl-1H-pyrazol-3-yl)-6-ethyl-8-fluoro-4-methylquinolin-2-yl)-N-((3S,4R)-3-fluorotetrahydro-2H-pyran-4-yl)piperidin-4-amine] | ++ (between 10- and 100-fold selectivity) |
| > 1000 nM | 1 to 10 nM | CCc1cc(F)c2nc(N3CC[C@H](N[C@@H]4CCOC4)[C@H](F)C3)c(-c3ccn(C)n3)c(C)c2c1 [Compound 194, (3R,4S)-1-(6-ethyl-8-fluoro-4-methyl-3-(1-methyl-1H-pyrazol-3-yl)quinolin-2-yl)-3-fluoro-N—((R)-tetrahydrofuran-3-yl)piperidin-4-amine] | +++ (between 100- to 1000-fold selective) |
| > 1000 nM | ≥ 100 nM | CCc1cc(F)c2nc(N3CCN([C@@H]4CCOC4)C[C@H]3C)c(-c3nc(C)no3)c(C)c2c1 [Compound 31] | ++ (between 10- and 100-fold selectivity) |
| > 1000 nM | 10 to 100 nM | CCc1cc(F)c2nc(N3CCN(C[C@H]4CCOC4)C[C@H]3C)c(-c3ccn(C)n3)c(C)c2c1 [Compound 58] | +++ (between 100- to 1000-fold selective) |
